Results taken from patent US9617545B2, “Method for treating breast cancer by targeting breast cancer stem cell” (KYUNGPOOK NATIONAL UNIVERSITY INDUSTRY-ACADEMIC COOPERATION …, priority 2014, dated 2017).

System: MCF7 and MCF7/ADR cells
Assay: MTT assay: cell viability against doxorubicin
Type: cell-based, human
Settings: MCF7/ADR cells compared with MCF7 cells; doxorubicin 0, 1, 2, 10, 25 μM; 24, 48, 72 hours; FIG. 2A
Experimental: A human breast cancer maternal cell line, MCF-7 (Korean Cell Line Bank), was continuously exposed to 1 μM of a drug, doxorubicin (Sigma). In this case, the maternal cell line was cultured in […] for at least one week to establish a breast cancer cell MCF7/ADR having induced drug resistance. Here, the cell culture was performed at 37° C. and 5% CO^2 in a DMEM medium (Hyclon, Logan, Utah) supplemented with 10% FBS and 1% penicillin.
To evaluate cytotoxicity of the anti-cancer agent (doxorubicin), a cell viability assay was performed using an MTT assay. First, cells were plated on a 96-well plate at a density of 5×10^3 cells/well, treated with the drug, and then cultured for 24, 48, and 72 hours. Thereafter, each well was treated with 5 mg/ml of MTT (AMRESCO), and the cells were cultured at 37° C. for 4 hours. Each well was treated with DMSO ([…]) to dissolve a formazan salt, and the amount of the formazan salt was determined by measuring an OD value at 540 nm using a microplate reader (Tecan Austria GmbH, Austria). […]
After 24, 48, and 72 hours when the MCF7 and MCF7/ADR cells were treated with doxorubicin (0, 1, 2, 10, and 25 μM), the cell viabilities were determined.

Compound: COc1cccc2c1C(=O)c1c(O)c3c(c(O)c1C2=O)C[C@@](O)(C(=O)CO)C[C@@H]3O[C@H]1C[C@H](N)[C@H](O)[C@H](C)O1 [doxorubicin]
- cell viability against doxorubicin: higher cell viability
